Source: US9938261B2, “Heterocyclic compounds and methods of use thereof” (AMBIT BIOSCIENCES CORPORATION, priority 2011, dated 2018)
Structures can show the parent of a compound that is named as a salt. Where two headings read alike, the source gives them in different places.

Experiments:
[1] = target: T1, CSF1R (Homo sapiens, UniProt P07333); assay: Competition binding assay, CSF1R Kd; parameters: made in house
Description: (§1) Competition binding assays used herein were developed, validated and performed as described in Fabian et al., Nature Biotechnology 2005, 23, 329-336. Kinases were produced as fusions to T7 phage (See, Fabian et al. or WO04/015142) or alternatively, the kinases were expressed in HEK-293 cells and subsequently tagged with DNA for PCR detection (See, WO08/005310). For the binding assays, streptavidin-coated magnetic beads were treated with biotinylated affinity ligands for 30 min at room temperature to generate affinity resins. The liganded beads were blocked with excess biotin and washed with blocking buffer (SeaBlock (Pierce), 1% BSA, 0.05% Tween 20, 1 mM DTT) to remove unbound ligand and to reduce non-specific binding. Binding reactions were assembled by combining kinase, liganded affinity beads, and test compounds in 1× binding buffer (20% SeaBlock, 0.17×PBS, 0.05% Tween 20, 6 mM DTT). Test compounds were prepared as 100× stocks in DMSO and diluted into the aqueous environment. Kds were determined using an eleven point threefold serial dilutions. DMSO or control compounds were was added to control assays lacking a test compound. Primary screen assays were performed in polypropylene 384-well plates in a final volume of 20-40 μL, while Kd determinations were performed in polystyrene 96-well plates in a final volume of 135 μL. The assay plates were incubated at room temperature with shaking for 1 hour to allow the binding reactions to reach equilibrium, and the affinity beads were washed extensively with wash buffer (1×PBS, 0.05% Tween 20) to remove unbound protein. The beads were then resuspended in elution buffer (1×PBS, 0.05% Tween […] non-biotinylated affinity ligand) and incubated at room temperature with shaking for 30 min. The kinase concentration in the eluates was measured by quantitative PCR.

[2] = target: T1, CSF1R; assay: HEK293 CSF1R phosphorylation MSD assay; type: cell-based; parameters: expressed in transfected cells; host or cells: HEK293; settings: read-out: HEK293 pCSF1R M-CSF MSD:IC50
Description: The compounds disclosed herein were tested in a CSF1R phosphorylation assay to determine their cellular potency against CSF1R. A HEK293 cell line expressing CSF1R fused to FK506 binding protein (FKBP) as a molecular tag was generated. Inhibition of CSF1R kinase activity will prevent ligand-stimulated autophosphorylation of the CSF1R-FKBP in intact cells. Subsequent cell lysates are assayed in a sandwich ELISA employing the electrochemiluminescent Meso Scale Discovery (MSD) technology for the presence of the phosphorylated (p)CSF1R-FKBP. This assay determines the potency of compounds as CSF1R inhibitors by measuring the reduction in the amount of pCSF1R with increasing doses of compounds added to the cells prior to M-CSF stimulation.
On day one of the experiment, HEK293-CSF1R-FKPB cells, maintained in DMEM, with L-glutamine (Mediatech), 10% FBS, and 100 units/mL Penicillin/Streptomycin, were seeded at 50,000 cell/well in a volume of 100 μL per well in 96-well Cell Bind plates (Costar). The cells were cultured overnight at 37° C. under 5% CO2. To prepare the plates used in the MSD assay, a 330 nM biotin-FK506 (in TBS pH 7.2) solution was added at 30 μL per well to streptavidin-coated 96-well plates (MSD), and incubated overnight at room temperature, shaking at 500 rpm on an orbital shaker.
On day two, compounds diluted in DMSO were added to the cells in duplicate plates at 9 different concentrations with half-log intervals, plus DMSO only control, alongside a reference compound serving as a positive control. Final DMSO concentration was 0.5% in a volume of 200 μL per well. The compounds were allowed to incubate with the cells for 2 h at 37° C. under 5% CO2. At the end of the incubation, human M-CSF (R&D Systems) was added for 5 min to a final concentration of 50 ng/mL to stimulate CSF1R phosphorylation. Cells were lysed for 20 min, and the lysates were applied to the washed, FK506-coated MSD plates, and incubated overnight at 4° C. shaking at 500 rpm.
On day three, the MSD plates were washed, and the captured CSF1R-FKBP was assayed sequentially for phosphorylation using mouse anti-phosphotyrosine antibody (Millipore) and Sulfo-TAG goat anti-mouse IgG antibody (MSD), and detected on a Sector Imager 6000 instrument (MSD).
A single IC50 value for each compound was determined by averaging the IC50s of the duplicates calculated using Igor Pro 6 software, and represents the compound concentration that achieves a 50% inhibition of ligand-induced CSF1R phosphorylation compared to DMSO control.

[3] = target: T2, FLT3 (Homo sapiens, UniProt P36888); assay: Competition binding assay, FLT3 Kd
T2 construct: made in house
T2 sequence (P36888 27-993): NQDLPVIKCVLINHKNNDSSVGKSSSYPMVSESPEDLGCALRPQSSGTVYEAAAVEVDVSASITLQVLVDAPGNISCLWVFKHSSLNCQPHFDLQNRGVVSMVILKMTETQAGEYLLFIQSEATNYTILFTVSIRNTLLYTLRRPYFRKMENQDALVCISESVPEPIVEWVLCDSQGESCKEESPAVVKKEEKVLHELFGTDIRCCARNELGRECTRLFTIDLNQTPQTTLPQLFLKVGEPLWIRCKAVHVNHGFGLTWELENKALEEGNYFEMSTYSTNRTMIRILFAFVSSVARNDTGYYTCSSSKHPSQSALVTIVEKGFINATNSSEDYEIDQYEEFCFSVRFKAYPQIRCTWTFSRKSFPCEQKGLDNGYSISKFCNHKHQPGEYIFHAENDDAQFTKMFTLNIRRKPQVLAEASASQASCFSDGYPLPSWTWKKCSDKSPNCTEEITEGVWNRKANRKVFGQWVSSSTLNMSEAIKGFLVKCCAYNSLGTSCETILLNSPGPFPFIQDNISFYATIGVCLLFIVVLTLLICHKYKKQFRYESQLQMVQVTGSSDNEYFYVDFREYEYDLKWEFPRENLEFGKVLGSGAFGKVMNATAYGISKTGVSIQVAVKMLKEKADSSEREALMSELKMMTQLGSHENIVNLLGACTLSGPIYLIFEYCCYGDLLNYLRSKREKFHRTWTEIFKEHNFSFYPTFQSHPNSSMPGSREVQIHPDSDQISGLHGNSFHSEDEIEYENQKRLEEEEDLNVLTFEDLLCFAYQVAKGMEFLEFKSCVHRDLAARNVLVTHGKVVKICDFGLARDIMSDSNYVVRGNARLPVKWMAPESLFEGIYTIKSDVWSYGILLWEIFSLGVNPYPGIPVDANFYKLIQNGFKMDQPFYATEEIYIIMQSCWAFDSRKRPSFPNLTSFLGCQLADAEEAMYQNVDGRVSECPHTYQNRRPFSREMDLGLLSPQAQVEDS
Description: as §1

[4] = target: T3, KIT (Homo sapiens, UniProt P10721); assay: Competition binding assay, KIT Kd
T3 construct: made in house
T3 sequence (P10721 26-976): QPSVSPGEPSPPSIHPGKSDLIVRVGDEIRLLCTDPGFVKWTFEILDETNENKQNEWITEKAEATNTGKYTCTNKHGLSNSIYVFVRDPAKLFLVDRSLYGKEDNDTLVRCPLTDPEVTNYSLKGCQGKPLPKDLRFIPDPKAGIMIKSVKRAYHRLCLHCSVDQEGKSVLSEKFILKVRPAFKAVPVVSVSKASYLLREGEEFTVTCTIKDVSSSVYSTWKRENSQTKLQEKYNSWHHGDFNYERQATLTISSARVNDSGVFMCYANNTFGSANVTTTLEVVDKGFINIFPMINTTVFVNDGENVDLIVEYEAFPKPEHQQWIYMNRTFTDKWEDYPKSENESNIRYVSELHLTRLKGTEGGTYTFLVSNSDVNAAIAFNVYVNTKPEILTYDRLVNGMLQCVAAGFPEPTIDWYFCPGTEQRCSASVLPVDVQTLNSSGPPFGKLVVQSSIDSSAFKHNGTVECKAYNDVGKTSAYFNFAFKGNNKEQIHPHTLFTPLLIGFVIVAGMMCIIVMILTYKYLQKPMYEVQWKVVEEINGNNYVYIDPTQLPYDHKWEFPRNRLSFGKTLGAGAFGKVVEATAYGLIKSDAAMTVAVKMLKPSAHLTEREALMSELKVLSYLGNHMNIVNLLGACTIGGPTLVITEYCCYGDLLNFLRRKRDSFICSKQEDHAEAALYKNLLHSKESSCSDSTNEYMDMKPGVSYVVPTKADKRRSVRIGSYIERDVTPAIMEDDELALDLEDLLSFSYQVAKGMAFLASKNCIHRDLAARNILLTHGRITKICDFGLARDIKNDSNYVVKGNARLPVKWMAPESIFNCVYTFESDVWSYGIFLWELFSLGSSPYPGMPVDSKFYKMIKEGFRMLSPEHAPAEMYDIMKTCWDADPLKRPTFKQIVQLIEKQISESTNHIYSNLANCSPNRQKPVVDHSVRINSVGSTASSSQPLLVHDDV
Description: as §1

[5] = test system: M-NFS-60 cells; assay: M-NFS-60 cell proliferation assay (Alamar Blue); type: cell-based, mouse; settings: Mus musculus, read-out: CSF1R M-NFS-60 CTB:IC50
Description: The compounds disclosed herein were tested in an M-NFS-60 cell proliferation assay to determine their cellular potency against CSF1R. M-NFS-60s are mouse monocytic cells that depend on the binding of the ligand M-CSF to its receptor, CSF1R, to proliferate. Inhibition of CSF1R kinase activity will cause reduced growth and/or cell death. This assay assesses the potency of compounds as CSF1R inhibitors by measuring the reduction of Alamar Blue reagent by viable cells.
On day one of the experiment, M-NFS-60 cells were maintained in RPMI complete medium (Omega Scientific) plus 10% FBS supplemented with 20 ng/mL of M-CSF (R&D Systems). 96-well TC-treated, flat bottom plates were seeded at 10,000 cell/well at a volume of 100 μL per well. The cells were cultured overnight at 37° C. under 5% CO2.
On day two, compounds were added to the cells at 9 different concentrations, with half-log intervals alongside a control reference compound serving as a positive control. Final DMSO concentration was kept at 0.5% for a final volume of 200 μL. The compounds were allowed to incubate with the cells for 72 hours at 37° C. under 5% CO2.
On day five of the experiment, 40 μl of Alamar Blue reagent was added to each well and allowed to incubate for 3 hours. Alamar Blue fluorescence was read using SoftMax Pro software at 560 nm (excitation) and 590 nm (emission). IC50s were generated as an average of duplicates and represents the concentration of test compound that achieves 50% inhibition of cellular proliferation compared to control.

[6] = target: T4, PDGFRβ (Homo sapiens, UniProt P09619); assay: Competition binding assay, PDGFRβ Kd
T4 construct: made in house
T4 sequence (P09619 33-1106): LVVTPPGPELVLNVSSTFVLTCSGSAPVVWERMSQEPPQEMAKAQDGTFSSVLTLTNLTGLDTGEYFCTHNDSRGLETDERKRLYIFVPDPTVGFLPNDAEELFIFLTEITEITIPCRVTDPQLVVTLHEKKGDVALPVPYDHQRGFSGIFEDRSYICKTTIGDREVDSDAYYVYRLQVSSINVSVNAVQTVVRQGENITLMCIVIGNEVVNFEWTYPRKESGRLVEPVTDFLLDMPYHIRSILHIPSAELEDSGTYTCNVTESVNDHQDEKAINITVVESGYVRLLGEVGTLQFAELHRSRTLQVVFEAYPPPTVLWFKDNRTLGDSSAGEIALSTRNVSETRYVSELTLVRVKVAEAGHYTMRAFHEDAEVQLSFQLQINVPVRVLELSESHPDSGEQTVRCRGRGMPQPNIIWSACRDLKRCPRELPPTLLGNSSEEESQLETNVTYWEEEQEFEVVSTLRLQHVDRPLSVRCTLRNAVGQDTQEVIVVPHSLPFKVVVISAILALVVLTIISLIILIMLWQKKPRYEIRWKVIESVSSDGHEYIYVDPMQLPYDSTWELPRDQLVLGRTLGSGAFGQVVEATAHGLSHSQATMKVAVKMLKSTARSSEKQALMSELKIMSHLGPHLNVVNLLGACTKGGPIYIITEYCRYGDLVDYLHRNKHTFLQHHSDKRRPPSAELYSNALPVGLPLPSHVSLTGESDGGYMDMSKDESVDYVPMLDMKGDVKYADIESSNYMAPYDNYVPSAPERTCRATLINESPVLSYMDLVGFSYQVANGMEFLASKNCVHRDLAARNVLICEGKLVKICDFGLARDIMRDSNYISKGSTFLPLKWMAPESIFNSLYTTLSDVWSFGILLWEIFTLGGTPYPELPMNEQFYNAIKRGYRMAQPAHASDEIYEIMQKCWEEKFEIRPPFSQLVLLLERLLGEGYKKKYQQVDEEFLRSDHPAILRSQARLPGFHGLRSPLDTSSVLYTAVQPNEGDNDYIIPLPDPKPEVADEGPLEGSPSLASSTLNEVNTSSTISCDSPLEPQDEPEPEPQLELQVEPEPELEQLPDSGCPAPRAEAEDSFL
Description: as §1

[7] = 2 h compound, human M-CSF 50 ng/mL for 5 min
[8] = 72 hours incubation, M-CSF 20 ng/mL

T1 sequence (P07333 20-972): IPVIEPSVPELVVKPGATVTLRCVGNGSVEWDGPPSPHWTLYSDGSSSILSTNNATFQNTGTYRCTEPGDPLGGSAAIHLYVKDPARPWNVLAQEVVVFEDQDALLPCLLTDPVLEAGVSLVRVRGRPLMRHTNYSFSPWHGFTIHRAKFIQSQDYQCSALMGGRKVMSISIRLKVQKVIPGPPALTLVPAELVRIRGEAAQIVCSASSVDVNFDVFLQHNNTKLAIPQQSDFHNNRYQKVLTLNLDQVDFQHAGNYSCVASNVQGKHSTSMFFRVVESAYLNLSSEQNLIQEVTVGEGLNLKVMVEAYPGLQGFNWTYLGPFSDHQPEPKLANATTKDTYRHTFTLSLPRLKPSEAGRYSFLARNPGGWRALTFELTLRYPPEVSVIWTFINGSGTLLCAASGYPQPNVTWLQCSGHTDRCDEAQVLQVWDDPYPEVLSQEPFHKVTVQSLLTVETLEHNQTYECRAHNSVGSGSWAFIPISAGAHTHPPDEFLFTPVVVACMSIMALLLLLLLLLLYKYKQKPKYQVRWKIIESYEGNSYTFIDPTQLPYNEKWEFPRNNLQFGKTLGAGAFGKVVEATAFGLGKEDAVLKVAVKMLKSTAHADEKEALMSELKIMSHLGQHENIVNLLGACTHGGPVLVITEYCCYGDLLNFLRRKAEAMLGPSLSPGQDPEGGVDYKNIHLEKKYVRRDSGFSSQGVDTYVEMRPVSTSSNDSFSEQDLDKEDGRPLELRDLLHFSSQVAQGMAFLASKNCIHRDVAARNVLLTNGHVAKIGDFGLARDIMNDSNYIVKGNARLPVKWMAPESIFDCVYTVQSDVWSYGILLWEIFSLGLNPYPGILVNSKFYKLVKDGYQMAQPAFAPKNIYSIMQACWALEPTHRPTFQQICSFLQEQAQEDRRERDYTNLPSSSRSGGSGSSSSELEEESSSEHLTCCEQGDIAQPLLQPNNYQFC

Kd [1] [nM] | IC50 [2, 7] [nM] | Kd [3] [nM] | Kd [4] [nM] | Kd [6] [nM] | Kd ([1]; competition binding) [nM] | IC50 ([2]; HEK293 cells, M-CSF stimulated CSF1R phosphorylation, MSD) [nM] | Kd ([3]; competition binding) [nM] | Kd ([4]; competition binding) [nM] | Kd ([6]; competition binding) [nM] | Structure (SMILES) | IC50 [5, 8] [nM] | IC50 ([5]; M-NFS-60 cell proliferation) [nM]
5 to 20 | 50 to 200 | 1000 to 5000 | 100 to 500 | 50 to 500 |  |  |  |  |  | COc1cc2ncn(Cc3ccc4nc(NCc5ccccc5)sc4c3)c2cc1OC [Example 13, N-benzyl-6-((5,6-dimethoxy-1H-benzo[d]imidazol-1-yl)methyl)benzo[d]thiazol-2-amine] | 400 to 1500 | 
≤ 5 | > 500 | 1000 to 5000 | 100 to 500 | 50 to 500 |  |  |  |  |  | COc1cc2ncn(Cc3ccc4nc(Nc5ccccc5O)sc4c3)c2cc1OC [Example 31, 2-((6-((5,6-dimethoxy-1H-benzo[d]imidazol-1-yl)methyl)benzo[d]thiazol-2-yl)amino)phenol] | > 1500 | 
≤ 5 | 50 to 200 | > 5000 | 500 to 2000 | ≤ 50 |  |  |  |  |  | O[C@@H]1Cc2ccccc2[C@H]1Nc1nc2ccc(Cn3cnc4cncnc43)cc2s1 [Example 95, (1R,2R)-1-((6-((9H-purin-9-yl)methyl)benzo[d]thiazol-2-yl)amino)-2,3-dihydro-1H-inden-2-ol] | 50 to 400 | 
5 to 20 | 50 to 200 | > 5000 | > 2000 | 500 to 2000 |  |  |  |  |  | O[C@@H]1CCCC[C@H]1Nc1nc2ccc(Cn3cnc4cnccc43)cc2s1 [Example 72, (1R,2R)-2-((6-((1H-imidazo[4,5-c]pyridin-1-yl)methyl)benzo[d]thiazol-2-yl)amino)cyclohexanol] | 400 to 1500 | 
5 to 20 | 200 to 500 | 1000 to 5000 | 500 to 2000 | 500 to 2000 |  |  |  |  |  | COc1cc2ncn(Cc3ccc4nc(NC[C@H]5CCCO5)sc4c3)c2cc1OC [Example 8, (R)-6-((5,6-dimethoxy-1H-benzo[d]imidazol-1-yl)methyl)-N-((tetrahydrofuran-2-yl)methyl)benzo[d]thiazol-2-amine] | > 1500 | 
 |  |  |  |  | 5 to 20 | 50 to 200 | 200 to 1000 | 100 to 500 | 50 to 500 | CN(C)CC(=O)c1cnc2c(c1)ncn2Cc1ccc2nc(N[C@@H]3CCCC[C@H]3O)sc2c1 [Example 116, 2-(dimethylamino)-1-(3-((2-(((1R,2R)-2-hydroxycyclohexyl)amino)benzo[d]thiazol-6-yl)methyl)-3H-imidazo[4,5-b]pyridine-6-yl)ethanone acetate salt] |  | > 1500
≤ 5 | ≤ 50 | ≤ 200 | ≤ 100 | 50 to 500 |  |  |  |  |  | COc1ccc2ncn(Cc3ccc4nc(N[C@@H]5CCCC[C@H]5O)sc4c3)c2n1 [Example 23, (1R,2R)-2-((6-((5-methoxy-3H-imidazo[4,5-b]pyridin-3-yl)methyl)benzo[d]thiazol-2-yl)amino)cyclohexanol] | 50 to 400 | 
≤ 5 | 50 to 200 | 1000 to 5000 | 100 to 500 | 50 to 500 |  |  |  |  |  | COc1cc2ncn(Cc3ccc4nc(N[C@@H]5c6ccccc6C[C@H]5O)sc4c3)c2cc1OC [Example 19, (1R,2R)-1-((6-((5,6-dimethoxy-1H-benzo[d]imidazol-1-yl)methyl)benzo[d]thiazol-2-yl)amino)-2,3-dihydro-1H-inden-2-ol] | 50 to 400 | 
> 50 | 200 to 500 | 1000 to 5000 | > 2000 | > 2000 |  |  |  |  |  | COC(c1ccc2nc(N[C@@H]3CCCC[C@H]3O)sc2c1)c1c[nH]c2ncccc12 (stereo partly drawn) [Example 12, (1R,2R)-2-((6-(methoxy(1H-pyrrolo[2,3-b]pyridin-3-yl)methyl)benzo[d]thiazol-2-yl)amino)cyclohexanol] | > 1500 | 
5 to 20 | ≤ 50 | 200 to 1000 | ≤ 100 | 50 to 500 |  |  |  |  |  | O[C@@H]1CCCC[C@H]1Nc1nc2ccc(Cn3cnc4cc(Br)cnc43)cc2s1 [Example 29, (1R,2R)-2-((6-((6-bromo-3H-imidazo[4,5-b]pyridin-3-yl)methyl)benzo[d]thiazol-2-yl)amino)cyclohexanol] | 50 to 400 | 
